In US11013725B2, “Therapeutic agents for inner ear hearing impairment” (Keio University, priority 2015, dated 2021):

Legend:
[1] = tested on: inner ear cells derived from iPS cells of patients with Pendred syndrome; experiment: Measurement of cell viability under epoxomicin cellular stress (count of cells positive for pendrin but negative for Cleaved caspase 3); assay type: cell-based, human
Experimental: Pendrin-positive cells were induced from iPS cells derived from patients and iPS/ES cells derived from healthy subjects using the above method. The differentiation-induced cells were subjected to the following treatment. In the rapamycin administration group, rapamycin was administered for 3 days. In the cellular stress/rapamycin group, rapamycin (0.2 nM) was administered for 2 days and then epoxomicin (0.5 μM) was administered as cellular stress for 24 hours along with rapamycin. In the cellular stress group, DMSO was administered for 2 days and then only epoxomicin (0.5 μM) was administered as cellular stress for 24 hours. For fluorescent antibody staining, goat anti-pendrin antibody and rabbit anti-Cleaved Caspase 3 antibody were added (1:100 and 1:300, respectively) to the fixed cells on glass slides after antigen retrieval. Cell nuclei were then stained with Hoechst 33258 (diluted 1:1000). […] Pendrin-positive cells were induced from iPS cells derived from patients and iPS/ES cells derived from healthy subjects using the above method. The differentiation-induced cells were subjected to the following treatment. In the rapamycin administration group, rapamycin was administered for 3 days. In the cellular stress/rapamycin group, rapamycin (0.2 nM) was administered for 2 days and then epoxomicin (0.5 μM) was administered as cellular stress for 24 hours along with rapamycin. […]

[2] = tested on: inner ear cells derived from iPS cells of patients with Pendred syndrome; experiment: Apoptosis under epoxomicin cellular stress (Cleaved caspase 3 staining of pendrin-positive cells); assay type: cell-based, human
Experimental: Pendrin-positive cells were induced from iPS cells derived from patients and iPS/ES cells derived from healthy subjects using the above method. The differentiation-induced cells were subjected to the following treatment. In the rapamycin administration group, rapamycin was administered for 3 days. In the cellular stress/rapamycin group, rapamycin (0.2 nM) was administered for 2 days and then epoxomicin (0.5 μM) was administered as cellular stress for 24 hours along with rapamycin. In the cellular stress group, DMSO was administered for 2 days and then only epoxomicin (0.5 μM) was administered as cellular stress for 24 hours. For fluorescent antibody staining, goat anti-pendrin antibody and rabbit anti-Cleaved Caspase 3 antibody were added (1:100 and 1:300, respectively) to the fixed cells on glass slides after antigen retrieval. Cell nuclei were then stained with Hoechst 33258 (diluted 1:1000). […] Pendrin-positive cells were induced from iPS cells derived from patients and iPS/ES cells derived from healthy subjects using the above method. The differentiation-induced cells were subjected to the following. In the rapamycin administration group, rapamycin was administered for 3 days. In the cellular stress/rapamycin group, rapamycin (0.2 nM) was administered for 2 days and then epoxomicin (0.5 μM) was administered as cellular stress for 24 hours along with rapamycin. In the cellular stress group, DMSO was administered for 2 days and then only epoxomicin (0.5 μM) was administered as cellular stress for 24 hours. […] For fluorescent antibody staining, goat anti-pendrin antibody and rabbit anti-Cleaved Caspase 3 antibody were added (1:100 and 1:300, respectively) to the fixed cells on glass slides after antigen retrieval. Cell nuclei were then stained with Hoechst 33258 (diluted 1:1000). […] Pendrin-positive cells were induced from iPS cells derived from patients and iPS/ES cells derived from healthy subjects using the above method. The differentiation-induced cells were subjected to the following treatment. In the calpeptin administration group, calpeptin was administered for 3 days. […]

[3] = tested on: neurons; settings: stated as known; cited from earlier work
[4] = tested on: differentiation-induced inner ear sensory epithelial cells; experiment: Administration of gentamicin to differentiation-induced inner ear sensory epithelial cells (cytotoxicity, number of cells); assay type: cell-based, human; settings: gentamicin injection diluted 80 times, administered for 10 days; FIG. 7
Experimental: (1-5) Administration of Gentamicin Known to Have Inner Ear Toxicity to Differentiation-Induced Inner Ear Sensory Epithelial Cells
A gentamicin injection diluted 80 times was administered for 10 days to the inner ear sensory epithelial cells whose differentiation had been induced using this method.

CO[C@H]1C[C@@H]2CC[C@@H](C)[C@@](O)(O2)C(=O)C(=O)N2CCCC[C@H]2C(=O)O[C@H]([C@H](C)C[C@@H]2CC[C@@H](O)[C@H](OC)C2)CC(=O)[C@H](C)/C=C(\C)[C@@H](O)[C@@H](OC)C(=O)[C@H](C)C[C@H](C)/C=C/C=C/C=C/1C [rapamycin]
decrease in cell viabilities when cells are stressed ([1]; rapamycin 0.2 nM for 2 days, then epoxomicin 0.5 μM for 24 hours along with rapamycin, FIG. 10): suppresses decrease in cell viabilities | apoptosis when cells are stressed (cells positive for pendrin and Cleaved caspase 3) ([2]; rapamycin 0.2 nM for 2 days, then epoxomicin 0.5 μM for 24 hours along with rapamycin, FIG. 11): inhibits such apoptosis

CN(C)C(=N)NC(=N)N [metformin]
decrease in the cell viability when cells are stressed ([1]; 1 mM or 10 mM metformin for 2 days, then epoxomicin 0.5 μM for 24 hours along with metformin, FIG. 12): suppresses the decrease in the cell viability | apoptosis when cells are stressed ([2]; 1 mM or 10 mM metformin for 2 days, then epoxomicin 0.5 μM for 24 hours along with metformin, FIG. 13): inhibits apoptosis

CCCC[C@@H](C=O)NC(=O)[C@H](CC(C)C)NC(=O)OCc1ccccc1 [Calpeptin]
apoptosis when cells are stressed ([2]; calpeptin 0.5 nM for 2 days, then epoxomicin 0.5 μM for 24 hours along with calpeptin, FIG. 14, reference example): cannot inhibit apoptosis | apoptosis of neurons in neurodegenerative diseases and the like [3]: known to inhibit apoptosis of neurons

gentamicin
number of cells as compared with a control group (cytotoxicity) [4]: significantly decreased
